Data reported in patent publication US20240409585A1, “MACROCYCLIC IMMUNOMODULATORS” (priority 2021, published 2024).
Numbered stars: 1 amine (or outer) side, 2 acyl side, 3 side chain; on linkers, the order of the positions; unused ones are H or OH. Bridge positions count the residues as written; N and C are the ends. Square brackets hold non-standard residues; d marks the D form. Peptide text beside a SMILES is read from it. * marks the point of attachment. ξ: configuration not given here. Phe(3-CONH2) = NC(=O)c1cccc(C[C@H](N)C(=O)O)c1; Phe(4-CONH2) = NC(=O)c1ccc(C[C@H](N)C(=O)O)cc1; Phe(4-COOH) = N[C@@H](Cc1ccc(C(=O)O)cc1)C(=O)O; Bip = N[C@@H](Cc1ccc(-c2ccccc2)cc1)C(=O)O; Ala(2-furyl) = N[C@@H](Cc1ccco1)C(=O)O; Phe(3-Me) = Cc1cccc(C[C@H](N)C(=O)O)c1; Val(3-OH) = CC(C)(O)[C@H](N)C(=O)O; X49 = O=C(C(N[*:1])C1CCOCC1)[*:2]; 2Thi = N[C@@H](Cc1cccs1)C(=O)O; Cha = N[C@@H](CC1CCCCC1)C(=O)O; Ile(3ξ) = CCC(C)[C@H](N)C(=O)O; Thr(3ξ) = CC(O)[C@H](N)C(=O)O; Carboxymethyl = O=C(O)C*; NMeA = CN[C@@H](C)C(=O)O; Dab = NCC[C@H](N)C(=O)O

Molecular target: T1, PE-labeled human PD-L1-Ig binding to Jurkat cell line over-expressing human PD-1 (Jurkat-PD-1) (Homo sapiens, UniProt Q15116)
T1 construct: expressed in transfected cells; host or cells: Jurkat
Assay: Jurkat-PD-1 Cell Binding High-Content Screening Assay (CBA): Method 1
Conditions: Jurkat-hPD-1 cells, PE-labeled PD-L1-Ig 20 nM final; read-out: Jurkat HPDL1 PD1 IC50 (uM) (Method 1)

T1 sequence (Q15116 25-288): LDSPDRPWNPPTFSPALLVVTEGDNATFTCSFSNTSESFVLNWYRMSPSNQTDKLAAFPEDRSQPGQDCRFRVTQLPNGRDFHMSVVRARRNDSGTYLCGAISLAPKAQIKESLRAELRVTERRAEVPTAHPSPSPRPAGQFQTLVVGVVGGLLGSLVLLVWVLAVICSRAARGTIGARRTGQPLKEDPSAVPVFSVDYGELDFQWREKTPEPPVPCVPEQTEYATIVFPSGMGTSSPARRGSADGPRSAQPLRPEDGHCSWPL

Row | Compound | IC50
1 | Cc1cccc(C[C@@H]2NC(=O)[C@H](CC(=O)O)NC(=O)[C@H](Cc3ccc(OCC(=O)O)cc3)NC(=O)[C@H](CCN)NC(=O)CSC[C@@H](C(=O)N[C@@H](CO)C(N)=O)NC(=O)[C@H](CO)NC(=O)[C@H](C(C)(C)O)NC(=O)[C@H](CC3CCCCC3)NC(=O)[C@H](CCN)NC(=O)[C@@H](CC(C)C)NC(=O)[C@H](C)N(C)C(=O)[C@H](Cc3ccc(C(=O)O)cc3)NC(=O)[C@H](Cc3ccc(-c4ccccc4)cc3)NC(=O)[C@H](Cc3cccc(C(N)=O)c3)NC2=O)c1 [Compound 2178] ({CH2CO}-[Dab]Y(Carboxymethyl)D[Phe(3-Me)][Phe(3-CONH2)][Bip][Phe(4-COOH)][NMeA][dL][Dab][Cha][Val(3-OH)]SCS-NH2; thioether N-14) | 0.04 µM
2 | Cc1cccc(C[C@@H]2NC(=O)[C@H](CC(=O)O)NC(=O)[C@H](Cc3ccc(OCC(=O)O)cc3)NC(=O)[C@H](CCN)NC(=O)CSC[C@@H](C(=O)N[C@@H](CO)C(N)=O)NC(=O)[C@H](CO)NC(=O)[C@H](C(C)(C)O)NC(=O)[C@H](CC3CCCCC3)NC(=O)[C@H](CCN)NC(=O)[C@@H](CC(C)C)NC(=O)[C@H](C)N(C)C(=O)[C@H](Cc3ccc(C(=O)O)cc3)NC(=O)[C@H](Cc3ccc(-c4ccccc4)cc3)NC(=O)[C@H](Cc3ccc(C(N)=O)cc3)NC2=O)c1 [Compound 2179] ({CH2CO}-[Dab]Y(Carboxymethyl)D[Phe(3-Me)][Phe(4-CONH2)][Bip][Phe(4-COOH)][NMeA][dL][Dab][Cha][Val(3-OH)]SCS-NH2; thioether N-14) | 0.06 µM

Second part, the compound after the results:

Row | IC50 | Compound
3 | 0.31 µM | CCC(C)[C@@H]1NC(=O)[C@H](Cc2ccc(-c3ccccc3)cc2)NC(=O)[C@H](C(C)C)NC(=O)[C@H](Cc2c[nH]c3ccccc23)NC(=O)[C@H](CC(=O)O)NC(=O)[C@H](Cc2ccc(O)cc2)NC(=O)[C@H](Cc2cccs2)NC(=O)CSC[C@@H](C(=O)N2CCC[C@H]2C(N)=O)NC(=O)[C@H](C(C)O)NC(=O)[C@H](C(C)(C)O)NC(=O)[C@H](CC2CCCCC2)NC(=O)[C@H](CC(N)=O)NC(=O)[C@@H](CC(C)C)NC(=O)[C@H](C)N(C)C1=O (stereo partly drawn) [Compound 2174] ({CH2CO}-[2Thi]YDWV[Bip][Ile(3ξ)][NMeA][dL]N[Cha][Val(3-OH)][Thr(3ξ)]CP-NH2; thioether N-14)
4 | 0.23 µM | CCC(C)[C@@H]1NC(=O)[C@H](Cc2ccc(-c3ccccc3)cc2)NC(=O)[C@H](C(C)C)NC(=O)[C@H](Cc2c[nH]c3ccccc23)NC(=O)[C@H](CC(=O)O)NC(=O)[C@H](Cc2ccc(O)cc2)NC(=O)[C@H](CCN)NC(=O)CSC[C@@H](C(=O)NC(C(N)=O)C2CCOCC2)NC(=O)[C@H](C(C)O)NC(=O)[C@H](C(C)(C)O)NC(=O)[C@H](CC2CCCCC2)NC(=O)[C@H](CC(N)=O)NC(=O)[C@@H](CC(C)C)NC(=O)[C@H](C)N(C)C1=O (stereo partly drawn) [Compound 2175] ({CH2CO}-[Dab]YDWV[Bip][Ile(3ξ)][NMeA][dL]N[Cha][Val(3-OH)][Thr(3ξ)]C[X49]-NH2; thioether N-14)
5 | 0.19 µM | CCC(C)[C@@H]1NC(=O)[C@H](Cc2ccc(-c3ccccc3)cc2)NC(=O)[C@H](C(C)C)NC(=O)[C@H](Cc2c[nH]c3ccccc23)NC(=O)[C@H](CC(=O)O)NC(=O)[C@H](Cc2ccc(O)cc2)NC(=O)[C@H](Cc2ccco2)NC(=O)CSC[C@@H](C(=O)NC(C(N)=O)C2CCOCC2)NC(=O)[C@H](C(C)O)NC(=O)[C@H](C(C)(C)O)NC(=O)[C@H](CC2CCCCC2)NC(=O)[C@H](CC(N)=O)NC(=O)[C@@H](CC(C)C)NC(=O)[C@H](C)N(C)C1=O (stereo partly drawn) [Compound 2176] ({CH2CO}-[Ala(2-furyl)]YDWV[Bip][Ile(3ξ)][NMeA][dL]N[Cha][Val(3-OH)][Thr(3ξ)]C[X49]-NH2; thioether N-14)
